Measured values published in patent US5574026A, “Methods for inhibiting angiogenesis proliferation of endothelial or tumor cells and tumor growth” (American Cyanamid Company, priority 1994, dated 1996).
≈ marks a conversion by molar mass, not a printed value. Structures can show the parent of a compound that is named as a salt. Where two headings read alike, the source gives them in different places.

Columns and labels:
Test in all cases: Antiproliferative activity in human tumor cell lines, PROTOCOL 1 and PROTOCOL 2
Type in all cases: cell-based
[1] = tested on: CACO2
Procedure: (§1) The antiproliferative activity of the compounds of Formula I in an Adult Bovine Aortic Endothelial (ABAE) cell line and in Human Tumor cells lines is evaluated in three similar assays that measure growth inhibition. The assays are identified as follows:
(§2) PROTOCOLS 1, 2, and 3 are described in greater detail hereinbelow. In general, according to PROTOCOLS 1 and 2, the target ABAE and/or Human Tumor cells are exposed to the compounds of Formula I for 48 hours. PROTOCOL 3 exposes ABAE cells to the compounds for 4 days. A detailed description of the Protocols is as follows:
(§3) Antiproliferative Activity in Human Tumor Cell Lines
(§4) The antiproliferative activity of the compounds of Formula I of the present invention is evaluated in a panel comprised of human tumor cell lines. The human tumor cell lines are from
(§5) 2) Colon tumors: MIP, CACO2, and SW620.
(§6) All cell lines are maintained in log phase in RPMI 1640 media, supplemented with 5% fetal calf serum, penicillin/streptomycin and 2 mM L-glutamine. Cultures are renewed after 20 passages with cells from a fresh stock of batch-frozen early passage cells. Cell lines are routinely checked for mycoplasma contamination (Genprobe). In a laminar flow hood, cells (1-5×10^4) are plated into 96-well microtiter plates in a volume of 0.1 ml/well with a bulk microtiter dispenser (Denley). […] At this concentration, dimethylsulfoxide has no effect on cell growth. Compounds are added using a Tomtec dispenser which simultaneously dispenses from one 96-well plate, containing the drug dilutions, to the plates containing the cells. After two days of continuous drug exposure, 50% cold trichloroacetic acid (TCA) is added to 10% final concentration to fix the cells, and after 60 minutes at 4° C., the TCA is aspirated and the plates are washed 5 times with deionized water using a microtiter plate washer. The number of cells on the plate are quantitated using a protein dye-binding assay (Monks et al., 1991). A 0.4% solution of the dye, sulforhodamine B, in […] is added to the plates, and the plates are washed 5 times with 1% glacial acetic acid using the automatic plate washed. The bound stain is solubilized with 0.1 ml of 10 mMTris base. The optical densities are read from an automatic spectrophotometric plate reader (Dynatech) directly to a main frame computer (VAX 8600).
(§7) Positive controls, that include standard chemotherapeutic drugs (i.e., adriamycin, cisplatin, etc.), are included in every experiment.
(§8) Background optical density measurements (complete media--cells, and complete media+drug-cells) are automatically subtracted from the appropriate control and test wells. Mean values and standard errors are determined from duplicate wells. A measure is also made of the optical density at time when the drugs are added. The number of cells after treatment (P), as % of control, is calculated for every concentration of drug, as follows: [formula] wherein: T is optical density measurement for treated cells after 48 hours;
(§9) C is optical density measurement for untreated cells after 48 hours;
(§10) Co is optical density measurement for cells at the time of drug addition.
(§11) IC50 of Growth inhibition is calculated from the sets of P values using the RS-1 data package (BBN Software).
(§12) Antiproliferative Activity in Human Tumor and Adult Bovine Aortic Endothelial Cell Lines (ABAE)
(§13) The antiproliferative activity of the compounds of Formula I is evaluated in a panel comprised of human tumor cell lines as listed in Protocol 1 as well as an adult bovine aortic endothelial cell line (ABAE). This assay is a modification of PROTOCOL 1. The modifications include:
(§14) 1) each concentration for each compound is tested in a single well;
(§15) 2) compounds are tested at 20, 4, 0.8, 0.16 microgram/ml and additionally in some experiments at 100 and 0.32 microgram/ml;
(§16) 3) samples are pipetted into a 96-well plate for each of the cell lines by a Beckman Biomek 1000 SL robot; […]

[2] = tested on: MIP; conditions: colon tumor cell line MIP, 48 hours
Procedure: as §1, §2, §3, §4, §5, §6, §7, §8, §9, §10, §11, §12, §13, §14, §15, §16

[3] = tested on: A2780/DDP; conditions: ovarian tumor cell line /DDP, 48 hours, read-out: IC50
Procedure: The assays are identified as follows: PROTOCOLS 1, 2, and 3 are described in greater detail hereinbelow. In general, according to PROTOCOLS 1 and 2, the target ABAE and/or Human Tumor cells are exposed to the compounds of Formula I for 48 hours. PROTOCOL 3 exposes ABAE cells to the compounds for 4 days. A detailed description of the Protocols is as follows: Antiproliferative Activity in Human Tumor Cell Lines The antiproliferative activity of the compounds of Formula I of the present invention is evaluated in a panel comprised of human tumor cell lines. […] Cultures are renewed after 20 passages with cells from a fresh stock of batch-frozen early passage cells. Cell lines are routinely checked for mycoplasma contamination (Genprobe). In a laminar flow hood, cells (1-5×10^4) are plated into 96-well microtiter plates in a volume of 0.1 ml/well with a bulk microtiter dispenser (Denley). […] Compounds are added using a Tomtec dispenser which simultaneously dispenses from one 96-well plate, containing the drug dilutions, to the plates containing the cells. After two days of continuous drug exposure, 50% cold trichloroacetic acid (TCA) is added to 10% final concentration to fix the cells, and after 60 minutes at 4° C., the TCA is aspirated and the plates are washed 5 times with deionized water using a microtiter plate washer. […] A 0.4% solution of the dye, sulforhodamine B, in glacial acetic acid is added to the plates, and the plates are washed 5 times with 1% glacial acetic acid using the automatic plate washed. The bound stain is solubilized with 0.1 ml of 10 mMTris base. The optical densities are read from an automatic spectrophotometric plate reader (Dynatech) directly to a main frame computer (VAX 8600). Positive controls, that include standard chemotherapeutic drugs (i.e., adriamycin, cisplatin, etc.), are included in every experiment. Background optical density measurements (complete media--cells, and complete media+drug-cells) are automatically subtracted from the appropriate control and test wells. Mean values and standard errors are determined from duplicate wells. A measure is also made of the optical density at time when the drugs are added. The number of cells after treatment (P), as % of control, is calculated for every concentration of drug, as follows: [formula] wherein: T is optical density measurement for treated cells after 48 hours; C is optical density measurement for untreated cells after 48 hours; Co is optical density measurement for cells at the time of drug addition. IC50 of Growth inhibition is calculated from the sets of P values using the RS-1 data package (BBN Software). Antiproliferative Activity in Human Tumor and Adult Bovine Aortic Endothelial Cell Lines (ABAE) The antiproliferative activity of the compounds of Formula I is evaluated in a panel comprised of human tumor cell lines as listed in Protocol 1 as well as an adult bovine aortic endothelial cell line (ABAE). This assay is a modification of PROTOCOL 1.

[4] = Caco-2, colon tumor cell line CACO2, 48 hours, read-out: IC50

Structure (SMILES)	IC50 [1, 4] [µg/mL]	IC50 [2] [µg/mL]	IC50 [3] [µg/mL]	IC50 ([1]; Caco-2, 48 h) [µg/mL]
CN(C)[C@@H]1C(O)=C(C(N)=O)C(=O)[C@@]2(O)C(O)=C3C(=O)c4c(O)ccc(Br)c4CC3CC12 (stereo partly drawn) [Example 8, [4S-(4α,12aα)]-7-Bromo-4-(dimethylamino)-1,4,4a,5,5a,-6,11,12a-octahydro-3,10,12,12a-tetrahydroxy-1,11-dioxo-2-naphthacenecarboxamide sulfate]	2.4	2	0.6	–
CN(C)[C@@H]1C(O)=C(C(N)=O)C(=O)[C@@]2(O)C(O)=C3C(=O)c4c(O)ccc(I)c4CC3CC12 (stereo partly drawn) [Example 10, [4S-(4α,12aα)]-4-(Dimethylamino)-4,4,4a,5,5a,6,11,12a-octahydro-3,10,12,12a-tetrahydroxy-7-iodo-1,11-dioxo-2-naphthacenecarboxamide]	–	0.8 (≈ 1.48 µM)	4 (≈ 7.4 µM)	2.8 (≈ 5.18 µM)
CN(C)c1ccc(O)c2c1C[C@H]1C[C@H]3[C@H](N(C)C)C(O)=C(C(N)=O)C(=O)[C@@]3(O)C(O)=C1C2=O [Minocycline, reference compound]	9 (≈ 19.7 µM)	6.1 (≈ 13.3 µM)	6.1 (≈ 13.3 µM)	–
